# Measured values: patent publication US7947854B2, “Bis-cationic compounds and use thereof” (The University of Sydney, priority 2003, dated 2011)
# Read-outs that look alike come from different tables or passages of the source.
# Legend:
# [1] = system: C. albicans (ATCC10231) phospholipases; assay: Inhibition of C. albicans phospholipases; assay type: biochemical
# [2] = system: ten randomly selected isolates of T. tonsurans; assay: Susceptibility of ten T. tonsurans isolates, broth microdilution NCCLS M38-P; assay type: cell-based; conditions: for MIC: Trichophyton tonsurans
# Description: Isolates were tested using the method described in the National Committee for Clinical Laboratory Standards (NCCLS) document M38-P for filamentous fungi, with dermatophyte specific modifications described by Fernández-Torres et al, Current topics in Medical Mycology, 14-19 Feb. 1999.
# Five dermatophyte isolates were, namely; T. rubrum, T. mentagrophytes, T. tonsurans, M. canis and M. gypseum, all of which produce lipases and some, phospholipase. These isolates were tested by the broth microdilution method according to NCCLS document M38-P, for activity against selected antifungal agents. In addition, ten randomly selected isolates of T. tonsurans were also tested. All isolates were maintained on SDA at 28° C. Candida parapsilosis (ATCC 20019) was used as the reference control is organism.
# The microdilution plates used were a single lot of RPMI 1640 basal medium (JRH bioScience Inc. Lenexa, Kans., USA) with L-glutamine and without sodium bicarbonate, buffered to pH 7.0, at 25° C., with 0.165 M (MOPS) morpholinepropanesulfonic acid (Sigma).
# Powdered drugs were dissolved in 100% dimethyl sulfoxide (DMSO), at concentrations 100 times higher than the final test concentration. All compounds were prepared in 100% (DMSO). For ITRA and TRB, two-fold drug dilutions were prepared in 100% DMSO at 100 times the final concentration, followed by further dilution 1:50 in RPMI medium, to yield 2× the final strength required for the test.
# Fungal cultures were subcultured onto Potato Dextrose Agar and grown at 28° C. for 7-10 days. Fungal suspensions were covered with 5 ml of distilled water, and then colonies were scraped off with cotton tipped swabs. The resulting mixture of conidia and hyphae elements was withdrawn, transferred to a sterile tube and then vortexed with glass beads. After the particles settled, the upper homogeneous suspension was collected and its density adjusted by a densitometer to a 0.5 McFarland standard at the wavelength of 530 nm (80-85% transmittance). These stock suspensions were then diluted 1:50 with RPMI medium to obtain final working inoculum concentration ranging from 0.3×10^4 to 9×10^4 CFU/ml. Inoculum quantification was performed by plating 100 μl of the 1:1000 dilution of the adjusted inoculum on SDA plates, incubated at 28° C., and after 7 days of incubation, the colonies were counted.
# Testing was based on NCCLS M38-P document for testing filamentous moulds. Testing was carried out in sterile 96-well flat bottomed microtitre plate. Columns 1 and 3 to 12 were filled with 100 μl of RPMI medium, leaving column 2 unfilled. Columns 1, 2 and 3 were filled with 100 μl of 2× drug concentration. Serial dilutions were then made by transferring 100 μl from column 3 to each column up to column 11, and 100 μl from column 11 was discarded. Column 12 served as drug free growth control. Finally, 100 μl of inoculum suspension was added to all wells except column 1, which acted as sterility control (Columns 1 and 12 served as sterility and growth control respectively). Plates were incubated at 28° C. for 7 days, and read at 3 days and 7 days of incubation. All testing was performed in duplicate, on three separate occasions.
# Growth in microtitre trays were read by visual inspection by using an illuminated-reversed mirror. Growth in each well was compared with the “growth control” drug free well. The MIC end point for all the drugs was chosen to be the first well with 100% growth inhibition (i.e. the lowest drug concentration inhibiting growth).
compound,measurement,setting,value
"CCCC[N+](CCCC)(CCCC)CCCCCCCCCCCC[N+](CCCC)(CCCC)CCCC [Compound 3, 1,12-bis(tributylammonium)do-decane dibromide]","inhibition of C. albicans (ATCC10231) phospholipases, in words",[1],inhibits
same,MIC Range,[2]; T. tonsurans 1,1.9 to 3.8 µg/mL
same,MIC Range,[2]; T. tonsurans 2,0.45 to 7.6 µg/mL
same,MIC Range,[2]; T. tonsurans 4,0.45 to 3.8 µg/mL
same,MIC Range,[2]; T. tonsurans 5,0.45 to 7.6 µg/mL
same,MIC Range,[2]; T. tonsurans 6,0.45 to 15.25 µg/mL
same,MIC Range,[2]; T. tonsurans 7,0.45 to 3.8 µg/mL
same,MIC Range,[2]; T. tonsurans 8,0.45 to 3.8 µg/mL
same,MIC Range,[2]; T. tonsurans 9,3.8 to 15.25 µg/mL
same,MIC Range,[2]; T. tonsurans 10,3.8 to 7.6 µg/mL
same,MIC Range,[2]; T.tonsurans 3,0.45 to 3.8 µg/mL
same,MIC,"[2]; T. tonsurans 1, read-out: MIC GM",3.02 µg/mL
same,MIC,"[2]; T. tonsurans 2, read-out: MIC GM",1.15 µg/mL
same,MIC,"[2]; T. tonsurans 2, read-out: MIC Mean",2.83 µg/mL
same,MIC,"[2]; T. tonsurans 4, read-out: MIC GM",1.87 µg/mL
same,MIC,"[2]; T. tonsurans 4, read-out: MIC Mean",2.68 µg/mL
same,MIC,"[2]; T. tonsurans 5, read-out: MIC GM",2.96 µg/mL
same,MIC,"[2]; T. tonsurans 5, read-out: MIC Mean",5.22 µg/mL
same,MIC,"[2]; T. tonsurans 6, read-out: MIC GM",4.32 µg/mL
same,MIC,"[2]; T. tonsurans 6, read-out: MIC Mean",6.94 µg/mL
same,MIC,"[2]; T. tonsurans 7, read-out: MIC GM",1.87 µg/mL
same,MIC,"[2]; T. tonsurans 7, read-out: MIC Mean",2.68 µg/mL
same,MIC,"[2]; T. tonsurans 8, read-out: MIC GM",2.48 µg/mL
same,MIC,"[2]; T. tonsurans 8, read-out: MIC Mean",3.13 µg/mL
same,MIC,"[2]; T. tonsurans 9, read-out: MIC GM",6.04 µg/mL
same,MIC,"[2]; T. tonsurans 9, read-out: MIC Mean",7.61 µg/mL
same,MIC,"[2]; T. tonsurans 10, read-out: MIC GM",4.52 µg/mL
same,MIC,"[2]; T. tonsurans 10, read-out: MIC Mean",4.75 µg/mL
same,MIC,"[2]; T.tonsurans 3, read-out: MIC GM",1.87 µg/mL
same,MIC,"[2]; T.tonsurans 3, read-out: MIC Mean",2.68 µg/mL
same,MIC,"[2]; read-out: MIC Mean, T. tonsurans 1",3.17 µg/mL
